Reference: patent publication US20070224165A1, “Neuroprotective Effects of Gly-Pro-Glu Following Intravenous Infusion” (Neuren Pharmaceuticals Limited, priority 2003, published 2007)

Assays:
[1] = rat, in vivo, iv, 3 mg/kg
Experimental: (§1) The ED-50 was 195 pg/tube, and the limit of detection was 2 pg/ml. The intra-assay CV was <10% over the range 0.5 to 25 ng/ml. Any samples reading off the standard curve were further diluted before being re-assayed.

[2] = in vivo; conditions: rat, iv, 30 mg/kg
Experimental: Blood samples (≈220 ul) were collected into heparinized tubes containing 20 μl Sigma protease inhibitor cocktail for mammalian tissues diluted at a 1:9 ratio in 0.1 M PBS (pH=7). The samples were collected at 20, 10 and 0 min before and 1, 2, 4, 8, 16, 32 and 64 min after injection. […] The samples were centrifuged at 3000× g for 15 min at 4° C. and the plasma removed and stored at −80° C. until extraction and assay.

[3] = in vivo; conditions: rat, iv, 3 mg/kg
Experimental: as §1

## NCC(=O)N1CCC[C@H]1C(=O)N[C@@H](CCC(=O)O)C(=O)O [GPE, glycine-proline-glutamate]
[1]
  time for plasma GPE to decline back to baseline values: ≤ 8 min
[2]
  Pro-Glu in plasma by HPLC: could not be identified
  level at 1 min: 33000 ng/mL
[3]
  level at 8 min: 9.8 ± 1.33 ng/mL
